Literature values in patent US7235556B2, “Methods of treating dry eye disorders” (Alcon, Inc., priority 2003, dated 2007).

System: allergic dermal inflammation
Settings: guinea pig model of eczema; reported in the background section

## CC(C)(C(=O)O)c1cn2nc(NCCCN3CCC(OC(c4ccccc4)c4ccccc4)CC3)ccc2n1.O.O [TAK-427, 2-[6-[[3-[4-(diphenylmethoxy)piperidino]propyl]amino]imidazo[1,2-b]pyridazin-2-yl]2-methylpropionic acid dihydrate]
  inhibition of allergic dermal inflammation: inhibit allergic dermal inflammation
